These results are taken from article PMC6640931 (ACS Omega, 2017).

Where “and” joins values, the source holds several entries; their conditions need not be identical. Identical values can stand only once.

Data set [1] can be described thus: Solubility in simulated body fluids. The format is physicochemical.
Data set [2] can be described thus: Equilibrium solubility in deionized water. As to conditions: for solubility, acyclovir active: DI water (pH 6.92), room temperature; for solubility: DI water (pH = 6.92).
The conditions of data set [3]: cited from earlier work.
The conditions of data set [4]: cited from earlier work. This is another data set of the same source.
The nature of data set [5]: Thermogravimetric analysis. As to conditions: under nitrogen, 5 °C/min. The data set is classed as physicochemical.

Turning to `CCCC[N+](CCCC)(CCCC)CCCC.Nc1nc2c(ncn2COCCO)c(=O)[n-]1` [[N4,4,4,4][Acy] (3), Tetrabutylammonium Acyclovir], the “solubility, acyclovir active” value is given as 220(20) mg active/mL in data set [1] (PBS, pH 7.4); 170(20) mg active/mL in data set [1] (SGF, pH 1.2); 140(10) mg active/mL in data set [1] (SIF, pH 6.8); 213.7 mg active/mL in data set [2]. Further, the “acyclovir active delivered relative to acyclovir itself” value in data set [1] (across the three media (PBS, SIF, SGF), depending on the medium) is “ca. 150 times”. In data set [2], the “solubility” value was found to be 213.7 mg acyclovir active/mL.
For `CCCCCCCCCCCCCCCC[N+](C)(C)C.Nc1nc2c(ncn2COCCO)c(=O)[n-]1` [[N1,1,1,16][Acy] (4), Hexadecyltrimethylammonium Acyclovir], in data set [2], the “solubility, acyclovir active” value is reported as 101.3(5) mg active/mL and the “solubility” value is 101.3 mg acyclovir active/mL.
With `C[N+](C)(C)CCO.Cc1ccc(C(=O)c2ccc(CC(=O)[O-])n2C)cc1` [choline tolmetin], in data set [3], the “water solubility of choline salt relative to neutral form” value is 8000 times.
Take `CC(C)[C@H](N)C(=O)OCCOCn1cnc2c(=O)[nH]c(N)nc21` [valacyclovir]: in data set [4], the oral bioavailability entry is recorded as “ca. 55%” and the “oral bioavailability relative to acyclovir” value is given as 3 times.
As to `Nc1nc2c(ncn2COCCO)c(=O)[nH]1` [acyclovir (3Acy·2H2O), 9-[(2-hydroxyethoxy)methyl]guanine, reference compound], the solubility in data set [1] (simulated intestinal fluid (SIF), pH 6.8, thermodynamic from solid) is 4440 µM and 1000 µg/mL. Moreover, in data set [5], the “T5% (decomposition of 5% of the sample), TGA” value was determined as 240.1 °C. In addition, the solubility in water in data set [3] (at 22–25 °C) was 1200 to 1600 µg/mL.
Regarding `CCCCC(CC)COC(=O)CC(C(=O)OCC(CC)CCCC)S(=O)(=O)O.Nc1nc2c(ncn2COCCO)c(=O)[nH]1` (stereo not drawn) [[H2Acy][Doc] (6), Acyclovir Docusate], in data set [5], the “T5% (decomposition of 5% of the sample), TGA” value is 122.1 °C. For the same molecule, in data set [2], the “solubility, acyclovir active” value was 2.948(4) mg active/mL and the “solubility” value was 2.9 mg acyclovir active/mL.
Regarding `C[N+](C)(C)CCO.Nc1nc2c(ncn2COCCO)c(=O)[nH]1` [[Cho][Acy] (1), Choline Acyclovir], the “T5% (decomposition of 5% of the sample), TGA” value in data set [5] worked out at 131 °C.
